The record followed here is patent US20230059582A1, “CANNABINOID DERIVATIVES” (CANOPY GROWTH CORPORATION, priority 2019, published 2023).

Like-named read-outs stand apart in the source and are kept apart here.

The target in experiment [1] is T1, human CB1 receptor (Homo sapiens, UniProt P21554).
T1 construct: host or cells: CHO-K1 (stably transfected cell line, membranes prepared in house)
Nature of the experiment: CB1 radioligand competitive binding assay ([3H]CP 55,940 displacement). Conditions: for Selectivity CB1: fold difference between CB1 and CB2 binding, printed in the column of the receptor with higher affinity, 1.00 in both = about the same affinity.

Experiment [2] addresses T2, human CB2 receptor (Homo sapiens, UniProt P34972).
T2 construct: host or cells: CHO-K1 (stably transfected cell line, membranes prepared in house)
Nature of the experiment: CB2 radioligand competitive binding assay ([3H]CP 55,940 displacement). Conditions: for Selectivity CB2: fold difference between CB1 and CB2 binding, printed in the column of the receptor with higher affinity, 1.00 in both = about the same affinity. How it is done:
Compounds of the present disclosure were tested for CB1 receptor binding affinity and for CB2 receptor binding affinity. As used herein, “binding affinity” is represented by the IC50 value, which was experimentally determined as described herein. The lower the IC50 value the higher the binding affinity. A compound of the present disclosure may be said to have “binding selectivity” if it has a higher binding affinity for one receptor compared to the other.
The membranes were prepared from CHO-K1 (Chinese hamster ovary) cells stably transfected with the human CB2 receptor (Cat. #ES-111-C; Perkin Elmer, Boston, Mass.). The cells were grown adherently and maintained in Ham's F12 medium containing 10% fetal bovine serum (FBS), penicillin, streptomycin and geneticin (G418) at 37° C. in a humid atmosphere of 5% CO2 following the manufacturer's instructions.
For membrane preparation the cells were washed with PBS and scraped off the plates in cold homogenization buffer (25 mM HEPES (pH 7.4), 2 mM EDTA) containing protease inhibitor cocktail (Sigma Cat. #P8340). The cell suspension was homogenized with a Pro-PK-01200D Polytron Homogenizer (Pro Scientific) and then centrifuged for 30 min at 120,000×g. The supernatant was discarded and the pellet was re-suspended in the homogenization buffer and stored at −80° C. until the time of use.
In this experiment, 3H radiolabeled CP 55,940, i.e. [3H]CP 55,940 (Perkin Elmer, Boston, Mass.), was used as a radioligand for the CB2 receptor to determine the binding affinity of compounds for the CB2 receptor (Scheme 3; above).
The competition binding experiments (single dose and dose-response) were performed by incubating 0.6 nM of [3H]CP55,940 (specific activity 101 Ci/mmol, Perkin Elmer) and different concentrations of compounds disclosed herein with membranes prepared as above from CHO-K1 cells expressing human CB2 receptor (1 μg of protein/well), 50 mM Tris-HCl (pH 7.4), 5 mM MgCl2, 1 mM CaCl2, and 2 mg/mL BSA.
For the single dose experiments, the compound stocks (usually 10 mM in DMSO) were diluted to working stocks in the binding buffer to give the final compound concentrations of 10 μM and 1 μM. For the dose-response experiments the test compounds were sequentially diluted to provide the desired concentration range for the IC50 determination. In each case the compounds were pre-incubated with the membrane for 20 min, before adding the radioligand.
After incubation with the radioligand for 60 min at 37° C., the incubation was terminated by rapid filtration of assay mixture through MultiScreen®HTS^+ 96-well filter plates (Millipore, Cat. #MSFCNXB), pre-soaked for 60 min with 50 mM Tris-HCl (pH 7.4) containing 0.33% polyethylenimine (PEI). The nonspecific binding (NSB) was determined in the presence of 10 μM unlabelled CP55,940. After drying the filter plate at 50° C. for at least 60 min, the filter-bound radioactivity was determined by scintillation spectrometry using the 1450 MicroBeta Plate Counter (Perkin Elmer, Boston, Mass.). From the dose-response experiments, the IC50 values were determined (see Table 1, CB2 IC50).
Where the test compound had about the same affinity for both receptors, this is represented by a value of 1.00 in the column for both receptors.

[3] abbreviates: 0.8 nM [3H]CP 55,940, membranes from CHO-K1 cells expressing human CB1 receptor, dose-response, read-out: CB1 IC50.
Setting [4] is: 0.6 nM [3H]CP 55,940, membranes from CHO-K1 cells expressing human CB2 receptor, dose-response, read-out: CB2 IC50.

T1 sequence (P21554 whole entry): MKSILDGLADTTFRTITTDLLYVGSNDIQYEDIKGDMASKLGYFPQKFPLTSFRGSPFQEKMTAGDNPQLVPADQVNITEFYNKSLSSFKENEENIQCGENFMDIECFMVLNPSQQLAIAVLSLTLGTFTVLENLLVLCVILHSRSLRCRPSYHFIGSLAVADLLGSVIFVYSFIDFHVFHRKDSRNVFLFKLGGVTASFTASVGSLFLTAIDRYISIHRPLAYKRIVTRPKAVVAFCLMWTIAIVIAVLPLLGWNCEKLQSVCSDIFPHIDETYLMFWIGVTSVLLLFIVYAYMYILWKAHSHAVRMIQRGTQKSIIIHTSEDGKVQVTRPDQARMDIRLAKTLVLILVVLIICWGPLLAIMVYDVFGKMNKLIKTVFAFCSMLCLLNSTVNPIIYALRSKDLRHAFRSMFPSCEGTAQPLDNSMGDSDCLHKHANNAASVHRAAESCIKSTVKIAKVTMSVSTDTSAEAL
T2 sequence (P34972 whole entry): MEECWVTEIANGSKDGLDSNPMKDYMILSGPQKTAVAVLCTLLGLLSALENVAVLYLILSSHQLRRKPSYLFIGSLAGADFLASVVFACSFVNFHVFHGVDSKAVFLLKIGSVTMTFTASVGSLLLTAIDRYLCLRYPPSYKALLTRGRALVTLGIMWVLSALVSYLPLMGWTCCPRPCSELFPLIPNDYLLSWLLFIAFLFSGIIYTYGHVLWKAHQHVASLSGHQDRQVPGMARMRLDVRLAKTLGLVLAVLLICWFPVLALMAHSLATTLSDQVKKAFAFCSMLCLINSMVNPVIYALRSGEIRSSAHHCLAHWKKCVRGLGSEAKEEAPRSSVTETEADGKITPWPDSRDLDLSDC

As to `CCCCCc1cc(OCOC(=O)OCC)c(CC=C(C)CCC=C(C)C)c(OCOC(=O)OCC)c1` [4′, ((2-(3,7-dimethylocta-2,6-dien-1-yl)-5-pentyl-1,3-phenylene)bis(oxy))bis(methylene) diethyl bis(carbonate)], the IC50 in experiment [1] (setting [3]) was over 5000 nM; in experiment [2] (setting [4]), 500 to 990 nM. In experiment [2], the “Selectivity CB2” value came out at 24.69 fold.
`CCCCCc1cc(OCOC(=O)C(C)(C)C)c(CC=C(C)CCC=C(C)C)c(OCOC(=O)C(C)(C)C)c1` [7′, ((2-(3,7-dimethylocta-2,6-dien-1-yl)-5-pentyl-1,3-phenylene)bis(oxy))bis(methylene) bis(2,2-dimethylpropanoate)]: the IC50 in experiment [1] (setting [3]) and in experiment [2] (setting [4]) was over 5000 nM each time. Further, the “Selectivity CB1” value in experiment [1] worked out at 1.00 fold. In addition, in experiment [2], the “Selectivity CB2” value is 1.00 fold.
As to `CCCCCc1cc(OCOC2CCCCC2)c(CC=C(C)CCC=C(C)C)c(OCOC2CCCCC2)c1` [18′, ((((2-(3,7-dimethylocta-2,6-dien-1-yl)-5-pentyl-1,3-phenylene)bis(oxy))bis(methylene))bis(oxy))dicyclohexane], the IC50 in experiment [1] (setting [3]) and in experiment [2] (setting [4]) was over 5000 nM in each case. Further, the “Selectivity CB1” value in experiment [1] stood at 1.00 fold. Also, the “Selectivity CB2” value in experiment [2] is given as 1.00 fold.
As for `CCCCCCC(C)(C)c1cc(OCOC(=O)C(C)(C)C)c(CC=C(C)CCC=C(C)C)c(OCOC(=O)C(C)(C)C)c1` [22′, ((2-(3,7-dimethylocta-2,6-dien-1-yl)-5-(2-methyloctan-2-yl)-1,3-phenylene)bis(oxy))bis(methylene) bis(2,2-dimethylpropanoate)], the values for the IC50 in experiment [1] (setting [3]) and in experiment [2] (setting [4]) were over 5000 nM and 1000 to 4990 nM, respectively. For the same molecule, in experiment [2], the “Selectivity CB2” value amounted to 7.14 fold.
For `CCCCCc1cc(O)c(CC=C(C)CCC=C(C)C)c(OCOC(=O)OCC)c1` [Compound 4, (2-(3,7-dimethylocta-2,6-dien-1-yl)-3-hydroxy-5-pentylphenoxy)methyl ethyl carbonate], the IC50 in experiment [1] (setting [3]) was 1000 to 4990 nM; in experiment [2] (setting [4]) it was under 500 nM. Besides, the “Selectivity CB2” value in experiment [2] stood at 7.82 fold.
The corresponding values for `CCCCCc1cc(O)c(CC=C(C)CCC=C(C)C)c(OCOC(=O)C(C)(C)C)c1` [Compound 7, (2-(3,7-dimethylocta-2,6-dien-1-yl)-3-hydroxy-5-pentylphenoxy)methyl pivalate] are 500 to 990 nM, under 500 nM and 16.02 fold.
For `CCCCCc1cc(O)c(C/C=C(\C)CCC=C(C)C)c(OCOCC)c1` [Compound 16, 2-(3,7-dimethylocta-2,6-dien-1-yl)-3-(ethoxymethoxy)-5-pentylphenol], the IC50 in experiment [1] (setting [3]) is over 5000 nM; in experiment [2] (setting [4]), 1000 to 4990 nM. Further, the “Selectivity CB2” value in experiment [2] worked out at 2.83 fold.
Regarding `CCCCCc1cc(O)c(C/C=C(\C)CCC=C(C)C)c(OCOCCOC)c1` [Compound 17, 2-(3,7-dimethylocta-2,6-dien-1-yl)-3-((2-methoxyethoxy)methoxy)-5-pentylphenol], the IC50 in experiment [1] was 1000 to 4990 nM. Also, in experiment [2], the concentration for half-maximal inhibition (IC50) lay within 1000 to 4990 nM and the “Selectivity CB2” value is reported as 4.00 fold.
In the case of `CCCCCc1cc(O)c(CC=C(C)CCC=C(C)C)c(OCOC2CCCCC2)c1` [Compound 18, 3-((cyclohexyloxy)methoxy)-2-(3,7-dimethylocta-2,6-dien-1-yl)-5-pentylphenol], the IC50 in experiment [1] (setting [3]) is over 5000 nM; in experiment [2] (setting [4]), under 500 nM. Also, in experiment [2], the “Selectivity CB2” value came out at 28.00 fold.
The corresponding values for `CCCc1cc(O)c(C/C=C(\C)CCC=C(C)C)c(OCOC(=O)C(C)(C)C)c1` [Compound 19, (2-(3,7-dimethylocta-2,6-dien-1-yl)-3-hydroxy-5-propylphenoxy)methyl pivalate] are 500 to 990 nM, under 500 nM and 3.89 fold.
As for `CCCc1cc(O)c(C/C=C(\C)CCC=C(C)C)c(OCOC(=O)OCC)c1` [Compound 20, (2-(3,7-dimethylocta-2,6-dien-1-yl)-3-hydroxy-5-propylphenoxy)methyl ethyl carbonate], the IC50 in experiment [1] (setting [3]) and in experiment [2] (setting [4]) was 1000 to 4990 nM in each case. In addition, the “Selectivity CB2” value in experiment [2] is 1.80 fold.
`CCCCCCC(C)(C)c1cc(O)c(C/C=C(\C)CCC=C(C)C)c(OCOC(=O)OCC)c1` [Compound 21, (2-(3,7-dimethylocta-2,6-dien-1-yl)-3-hydroxy-5-(2-methyloctan-2-yl)phenoxy)methyl ethyl carbonate]: in experiment [1], the 50% inhibitory concentration (IC50) was 500 to 990 nM. Besides, in experiment [2], the IC50 was under 500 nM and the “Selectivity CB2” value was determined as 6.92 fold.
With `CCCCCCC(C)(C)c1cc(O)c(CC=C(C)CCC=C(C)C)c(OCOC(=O)C(C)(C)C)c1` [Compound 22, (2-(3,7-dimethylocta-2,6-dien-1-yl)-3-hydroxy-5-(2-methyloctan-2-yl)phenoxy)methyl pivalate], the figures for the IC50 in experiment [1] (setting [3]) and in experiment [2] (setting [4]) were 1000 to 4990 nM and under 500 nM, respectively. For the same molecule, the “Selectivity CB2” value in experiment [2] turned out to be 7.25 fold.
`CCCCCc1cc(O)c(C/C=C(\C)CCC=C(C)C)c(OCN(C(=O)OC)c2ccccc2)c1` [Compound 23, methyl ((2-(3,7-dimethylocta-2,6-dien-1-yl)-3-hydroxy-5-pentylphenoxy)methyl)(phenyl)carbamate]: the IC50 in experiment [1] (setting [3]) and in experiment [2] (setting [4]) was under 500 nM each time. Further, in experiment [2], the “Selectivity CB2” value is listed as 1.37 fold.
As for “dimethyl (((5-butyl-2-(3,7-dimethylocta-2,6-dien-1-yl)-1,3-phenylene)bis(oxy))bis(methylene)) bis(phenylcarbamate) [23′]”, the IC50 in experiment [1] (setting [3]) and in experiment [2] (setting [4]) was over 5000 nM each time. The “Selectivity CB2” value in experiment [2] is recorded as 1.88 fold.
